Reference: ChEMBL document CHEMBL1201862, “PubChem BioAssay data set” (2004)
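Briefly, cells in 96-well plates were exposed to five compound concentrations for 48 h, and endpoints were estimated by linear interpolation. GI50 marks 50% less growth.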 Activity calls are given as the source filed them. Rule as the data show it: active = GI50 up to about 1.1 µM and inactive = higher.

Legend:
Assay in all cases: NCI tumour cell line growth inhibition, 48 h
786-0 = test system: 786-0
BT-549 = test system: BT-549
CCRF-CEM = test system: CCRF-CEM
COLO 205 = test system: COLO 205
EKVX = test system: EKVX
HCT-116 = test system: HCT-116
HOP-62 = test system: HOP-62
IGROV-1 = test system: IGROV-1
LOX IMVI = test system: LOX IMVI
MDA-MB-435 = test system: MDA-MB-435
OVCAR-5 = test system: OVCAR-5
OVCAR-8 = test system: OVCAR-8
SF-295 = test system: SF-295
SF-539 = test system: SF-539
SK-OV-3 = test system: SK-OV-3
SW-620 = test system: SW-620
UACC-62 = test system: UACC-62
DU-145 = test system: DU-145
NCI-H226 = test system: NCI-H226
U-251 = test system: U-251

Measured: GI50

O=c1cc(-c2ccccc2)oc2ccc(-c3ccc4oc(-c5ccccc5)cc(=O)c4c3)cc12
inactive: 786-0 28.4 µM | BT-549 > 10 µM | CCRF-CEM 18 µM | COLO 205 17.1 µM | EKVX 3.75 µM | HCT-116 15.9 µM | HOP-62 19.1 µM | IGROV-1 26.9 µM | LOX IMVI 17.3 µM | MDA-MB-435 17.8 µM | OVCAR-5 27.6 µM | OVCAR-8 16.6 µM | SF-295 20.8 µM | SF-539 15.6 µM | SK-OV-3 44.8 µM | SW-620 30.5 µM | UACC-62 14.9 µM

COC(=O)C(CCc1ccccc1I)C1=CCC2(CC1)OCCO2 (stereo not drawn)
inactive: 786-0 51.3 µM | CCRF-CEM 14 µM | COLO 205 57.9 µM | DU-145 73.8 µM | EKVX 70.8 µM | HOP-62 70.1 µM | IGROV-1 96.2 µM | LOX IMVI 25.8 µM | MDA-MB-435 27.1 µM | NCI-H226 > 100 µM | OVCAR-5 15.7 µM | OVCAR-8 42 µM | SF-295 36.9 µM | SF-539 > 100 µM | SK-OV-3 > 100 µM | SW-620 40.4 µM | U-251 61.8 µM | UACC-62 81.5 µM

COc1cccc(C2c3cc4c(cc3OC(C)(N3CCCC3)C2C)OCO4)c1 (stereo not drawn)
inactive: 786-0 26.1 µM | CCRF-CEM 32.7 µM | COLO 205 11.4 µM | DU-145 20.7 µM | EKVX 24.6 µM | HCT-116 7.62 µM | HOP-62 6.62 µM | IGROV-1 8.38 µM | LOX IMVI 10.6 µM | MDA-MB-435 4.19 µM | NCI-H226 6.4 µM | OVCAR-5 7.73 µM | OVCAR-8 20.9 µM | SF-295 8.83 µM | SF-539 13.9 µM | SK-OV-3 11.9 µM | SW-620 6.55 µM | U-251 7.59 µM | UACC-62 5.38 µM

COc1cc(C2c3cc4c(cc3[C@@H](Nc3ccccc3)C3CO[C@@H](OC)[C@H]23)OCO4)cc(OC)c1O (stereo partly drawn)
inactive: 786-0 5.14 µM | CCRF-CEM 2.76 µM | COLO 205 12.3 µM | EKVX 20.7 µM | HCT-116 7.38 µM | HOP-62 7.11 µM | IGROV-1 20.9 µM | MDA-MB-435 9.79 µM | OVCAR-5 6.07 µM | OVCAR-8 7.03 µM | SF-295 3.46 µM | SF-539 5.41 µM | SK-OV-3 9.06 µM | SW-620 6.52 µM | U-251 5.55 µM

COC(=O)N/N=C(\C)C(CN(C)C)C(c1ccccc1)c1c(O)c2ccccc2oc1=O (stereo not drawn)
inactive: 786-0 > 100 µM | CCRF-CEM > 100 µM | COLO 205 > 100 µM | EKVX > 100 µM | HCT-116 > 100 µM | HOP-62 > 100 µM | IGROV-1 > 100 µM | LOX IMVI > 100 µM | NCI-H226 > 100 µM | OVCAR-5 > 100 µM | OVCAR-8 > 100 µM | SF-295 > 100 µM | SF-539 > 100 µM | SK-OV-3 > 100 µM | SW-620 > 100 µM | U-251 > 100 µM | UACC-62 > 100 µM

CCOC(=O)/C(=C/c1ccc(OC)cc1)N(CC)CC
inactive: 786-0 > 100 µM | CCRF-CEM > 100 µM | COLO 205 > 100 µM | EKVX > 100 µM | HCT-116 > 100 µM | HOP-62 > 100 µM | IGROV-1 > 100 µM | LOX IMVI > 100 µM | NCI-H226 > 100 µM | OVCAR-5 > 100 µM | OVCAR-8 > 100 µM | SF-295 > 100 µM | SF-539 > 100 µM | SK-OV-3 > 100 µM | SW-620 > 100 µM | U-251 > 100 µM | UACC-62 > 100 µM

C#CCOCn1cnc2ncnc(N)c21
inactive: 786-0 > 100 µM | CCRF-CEM > 100 µM | COLO 205 > 100 µM | EKVX > 100 µM | HCT-116 > 100 µM | HOP-62 > 100 µM | IGROV-1 > 100 µM | LOX IMVI > 100 µM | NCI-H226 > 100 µM | OVCAR-5 > 100 µM | OVCAR-8 > 100 µM | SF-295 > 100 µM | SF-539 > 100 µM | SK-OV-3 > 100 µM | SW-620 > 100 µM | U-251 > 100 µM | UACC-62 > 100 µM

COC(=O)C1C(OCc2ccccc2)C2CCC1(OC)C=C2C (stereo not drawn)
inactive: 786-0 > 100 µM | CCRF-CEM 26.9 µM | COLO 205 > 100 µM | EKVX 46.9 µM | HCT-116 61.4 µM | HOP-62 > 100 µM | IGROV-1 > 100 µM | LOX IMVI > 68.7 µM | NCI-H226 75.5 µM | OVCAR-5 > 100 µM | OVCAR-8 > 84.9 µM | SF-295 > 79.6 µM | SF-539 97.7 µM | SK-OV-3 > 100 µM | SW-620 > 100 µM | U-251 > 55.2 µM | UACC-62 64.6 µM

CSC(SC)=C(C#N)C(=O)Nc1cccc(Cl)c1
inactive: 786-0 33.8 µM | BT-549 36.6 µM | CCRF-CEM 33.1 µM | COLO 205 > 100 µM | EKVX > 100 µM | HCT-116 30.6 µM | HOP-62 67.9 µM | IGROV-1 69.2 µM | LOX IMVI 93.3 µM | MDA-MB-435 > 100 µM | NCI-H226 > 100 µM | OVCAR-5 98.2 µM | OVCAR-8 48.8 µM | SF-295 42.6 µM | SF-539 57.5 µM | SK-OV-3 65.8 µM | SW-620 39.8 µM | U-251 76.7 µM | UACC-62 59.6 µM

CCC#CCCCCCCCCC(F)C(=O)O (stereo not drawn)
inactive: 786-0 > 100 µM | CCRF-CEM > 100 µM | COLO 205 > 100 µM | DU-145 > 100 µM | EKVX > 100 µM | HCT-116 > 100 µM | HOP-62 > 100 µM | IGROV-1 > 100 µM | LOX IMVI > 100 µM | MDA-MB-435 > 100 µM | NCI-H226 > 100 µM | OVCAR-5 > 100 µM | OVCAR-8 > 100 µM | SF-295 > 100 µM | SF-539 > 100 µM | SK-OV-3 > 100 µM | SW-620 > 100 µM | U-251 > 100 µM

CCOC(=O)NC1CN2CCC1CC2 (stereo not drawn)
inactive: 786-0 > 100 µM | CCRF-CEM > 100 µM | COLO 205 > 100 µM | DU-145 > 100 µM | EKVX > 100 µM | HCT-116 > 100 µM | HOP-62 > 100 µM | IGROV-1 > 100 µM | LOX IMVI > 100 µM | MDA-MB-435 > 100 µM | NCI-H226 > 100 µM | OVCAR-5 > 100 µM | OVCAR-8 > 100 µM | SF-295 > 100 µM | SF-539 > 100 µM | SK-OV-3 > 100 µM | SW-620 > 100 µM | U-251 > 100 µM | UACC-62 > 100 µM
